Experimental data: the supplement of paper PMC10307832

Tests used:
Test in all cases: relative viability (nuclei count vs DMSO), 5 days (fraction); higher = more cells survive
[1] = compound: CN1CCN(CC1)C2=CC(=C(C=C2)NC3=NC=C4C(=N3)N(C5=CC=CC=C5C(=O)N4C)C)OC [XMD8-85] + NC(=O)Nc1cc(-c2cccc(F)c2)sc1C(=O)N[C@H]1CCCNC1 [AZD7762] (partner 0.2 µM)
In short: (§1)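 Cells from lung cancer lines were seeded into 1536-well plates and, one day later, dosed by pin tool. Treatments were either a single drug or a fixed dose of an anchor drug with five library-drug doses (not always all listed) in √10 steps. After 5 days, nuclei were stained in a one-step fixation (final 0.05% Triton X-100, 1% formaldehyde, 1 ug/ml Hoechst) and counted on 4× images, and relative viability is the treated-to-vehicle nuclei ratio, as the median of duplicate plates.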

[2] = compound: O=C(O)C(Cc1ccccc1[N+](=O)[O-])=NNc1nc(-c2ccc(Cl)c(Cl)c2)cs1 (mixture of isomers) [4EGI-1] + CC(=O)c1c(C)c2cnc(Nc3ccc(N4CCNCC4)cn3)nc2n(C2CCCC2)c1=O [Palbociclib] (partner 0.5 µM)
In short: as §1

[3] = compound: O=C(O)C(Cc1ccccc1[N+](=O)[O-])=NNc1nc(-c2ccc(Cl)c(Cl)c2)cs1 (mixture of isomers) [4EGI-1] + CC(C)C[C@H](NC(=O)[C@H](Cc1ccccc1)NC(=O)c1cnccn1)B(O)O [Bortezomib] (partner 0.002 µM)
In short: as §1

[4] = compound: O=C(O)C(Cc1ccccc1[N+](=O)[O-])=NNc1nc(-c2ccc(Cl)c(Cl)c2)cs1 (mixture of isomers) [4EGI-1] + Cc1nc(NC(=O)N2CCC[C@H]2C(N)=O)sc1-c1ccnc(C(C)(C)C(F)(F)F)c1 [Alpelisib] (partner 2 µM)
In short: as §1

NCI-H1792 gave a relative viability ([1]; first compound 0.8 µM) of 0.647, a relative viability ([1]; first compound 2.53 µM) of 0.694 and a relative viability ([1]; first compound 8 µM) of 0.574. The relative viability ([2]; first compound 0.5 µM) was 0.75, the relative viability ([2]; first compound 1.581 µM) was 0.695 and the relative viability ([2]; first compound 5 µM) was 0.723. The relative viability ([2]; first compound 15.81 µM) was 0.575, the relative viability ([2]; first compound 50 µM) was 0.646 and the relative viability ([3]; first compound 0.5 µM) was 0.916. It also gave a relative viability ([3]; first compound 1.581 µM) of 0.392, a relative viability ([3]; first compound 5 µM) of 0.933 and a relative viability ([3]; first compound 15.81 µM) of 0.89. The relative viability ([3]; first compound 50 µM) was 0.904, the relative viability ([4]; first compound 0.5 µM) was 0.765 and the relative viability ([4]; first compound 1.581 µM) was 0.684. The relative viability ([4]; first compound 5 µM) was 0.667, the relative viability ([4]; first compound 15.81 µM) was 0.533 and the relative viability ([4]; first compound 50 µM) was 0.469.
